± gives the uncertainty stated by the source.
Experiment: xn = mol fraction of the nth substance listed

O=C(O)C(=O)O + C[N+](C)(C)Cc1ccccc1.[Cl-]
101 kPa, x2 = 0.5
Conditions | electrical conductivity [S/m] | viscosity [mPa·s]
293.14 K | 0.2104 ± 1e-08 | –
293.17 K | – | 1971 ± 130
298.07 K | 0.3284 ± 1e-07 | –
298.09 K | – | 1362 ± 83
303.08 K | 0.4611 ± 1e-08 | –
303.11 K | – | 714 ± 38
308.09 K | 0.6182 ± 1e-07 | –
308.12 K | – | 452 ± 20
312.95 K | – | 266.7 ± 9.4
313.1 K | 0.7996 ± 1e-08 | –
317.96 K | – | 197.3 ± 5.2
318.18 K | 1.025 ± 1e-07 | –
323.06 K | – | 166.6 ± 4.5
323.19 K | 1.246 ± 1e-07 | –
327.98 K | – | 58.6 ± 2.8
328.11 K | 1.505 ± 1e-07 | –
332.99 K | – | 27.7 ± 1.2
333.03 K | 1.774 ± 1e-07 | –

C[N+]1(CCOCCOCC[N+]2(C)CCCC2)CCCC1.O=S(=O)([N-]S(=O)(=O)C(F)(F)F)C(F)(F)F.O=S(=O)([N-]S(=O)(=O)C(F)(F)F)C(F)(F)F + CC[n+]1ccn(C)c1.N#C[N-]C#N + O=S(=O)([N-]S(=O)(=O)C(F)(F)F)C(F)(F)F.[Li+]
electrical conductivity [S/m], 100 kPa
Conditions | 298 K | 303 K | 313 K | 323 K | 333 K | 343 K
x1 = 0.1484, x2 = 0.7091 | 0.719 ± 0.029 | 0.844 ± 0.034 | 1.2 ± 0.048 | 1.49 ± 0.06 | 1.86 ± 0.074 | 2.18 ± 0.087
x1 = 0.1554, x2 = 0.7427 | 0.972 ± 0.039 | 1.17 ± 0.047 | 1.56 ± 0.062 | 1.97 ± 0.079 | 2.42 ± 0.097 | 2.85 ± 0.11

CCCC[N+](CCCC)(CCCC)CCCC.[Cl-] + Oc1ccccc1
Conditions | viscosity [mPa·s]
323.15 K, 100 kPa, x1 = 0.167 | 37.2 ± 1.3

CCCC[n+]1ccn(C)c1.[Br-] + CCCOCCO
viscosity [mPa·s], 100 kPa
Conditions | x1 = 0.1001 | x1 = 0.2003 | x1 = 0.2994 | x1 = 0.4 | x1 = 0.5002 | x1 = 0.6002 | x1 = 0.701 | x1 = 0.7969 | x1 = 0.9003 | x1 = 1
298.15 K | 15.5 ± 1.7 | 50 ± 5.2 | 100 ± 10 | 152 ± 16 | 204 ± 22 | 270 ± 29 | 378 ± 42 | 560 ± 64 | 910 ± 110 | 1451 ± 180
303.15 K | 10.3 ± 1.1 | 28.9 ± 3 | 53.7 ± 5.6 | 81.1 ± 8.5 | 110 ± 12 | 148 ± 16 | 206 ± 22 | 305 ± 34 | 503 ± 58 | 837 ± 99
308.15 K | 7.54 ± 0.78 | 19.1 ± 2 | 35.1 ± 3.6 | 52 ± 5.3 | 69.9 ± 7.2 | 92.1 ± 9.6 | 126 ± 13 | 180 ± 19 | 293 ± 32 | 506 ± 57
313.15 K | 6 ± 0.62 | 14.5 ± 1.5 | 25.9 ± 2.7 | 37 ± 3.8 | 48.8 ± 5 | 61.7 ± 6.4 | 81.8 ± 8.5 | 114 ± 12 | 184 ± 20 | 330 ± 37

CC[n+]1ccn(C)c1C.F[B-](F)(F)F + CC#N
viscosity [mPa·s], 101.3 kPa
Conditions | 293.15 K | 298.15 K | 303.15 K | 308.15 K | 313.15 K | 318.15 K | 323.15 K | 328.15 K | 333.15 K
x1 = 0.02106 | 0.518 ± 0.044 | 0.505 ± 0.043 | 0.476 ± 0.04 | 0.456 ± 0.039 | 0.442 ± 0.037 | 0.428 ± 0.036 | 0.414 ± 0.035 | 0.401 ± 0.034 | 0.389 ± 0.033
x1 = 0.04617 | 0.648 ± 0.055 | 0.618 ± 0.052 | 0.59 ± 0.05 | 0.566 ± 0.048 | 0.543 ± 0.046 | 0.52 ± 0.044 | 0.501 ± 0.042 | 0.483 ± 0.041 | 0.465 ± 0.039
x1 = 0.07663 | 0.846 ± 0.072 | 0.808 ± 0.068 | 0.768 ± 0.065 | 0.732 ± 0.062 | 0.698 ± 0.059 | 0.667 ± 0.056 | 0.636 ± 0.054 | 0.608 ± 0.051 | 0.583 ± 0.049
x1 = 0.1143 | 1.116 ± 0.095 | 1.051 ± 0.089 | 0.995 ± 0.084 | 0.943 ± 0.08 | 0.893 ± 0.076 | 0.85 ± 0.072 | 0.809 ± 0.069 | 0.769 ± 0.065 | 0.733 ± 0.062
x1 = 0.1622 | 1.68 ± 0.14 | 1.58 ± 0.13 | 1.48 ± 0.13 | 1.39 ± 0.12 | 1.31 ± 0.11 | 1.24 ± 0.11 | 1.17 ± 0.099 | 1.105 ± 0.094 | 1.049 ± 0.089
x1 = 0.2251 | 2.63 ± 0.22 | 2.44 ± 0.21 | 2.26 ± 0.19 | 2.11 ± 0.18 | 1.97 ± 0.17 | 1.84 ± 0.16 | 1.73 ± 0.15 | 1.62 ± 0.14 | 1.53 ± 0.13
x1 = 0.3112 | 4.25 ± 0.36 | 3.81 ± 0.33 | 3.48 ± 0.3 | 3.2 ± 0.27 | 2.94 ± 0.25 | 2.71 ± 0.23 | 2.51 ± 0.21 | 2.33 ± 0.2 | 2.16 ± 0.18
x1 = 0.4365 | 8.05 ± 0.68 | 7.11 ± 0.6 | 6.37 ± 0.54 | 5.75 ± 0.49 | 5.18 ± 0.44 | 4.7 ± 0.4 | 4.27 ± 0.36 | 3.91 ± 0.33 | 3.57 ± 0.3

COS(=O)(=O)[O-].Cn1cc[n+](C)c1 + COCCO
viscosity [mPa·s], 101 kPa
Conditions | x1 = 0.0007603 | x1 = 0.001899 | x1 = 0.003034 | x1 = 0.004168 | x1 = 0.005298 | x1 = 0.006426
293.15 K | 2.01 ± 0.04 | 2.03 ± 0.04 | 2.05 ± 0.04 | 2.07 ± 0.04 | 2.09 ± 0.04 | 2.11 ± 0.04
303.15 K | 1.4 ± 0.03 | 1.42 ± 0.03 | 1.44 ± 0.03 | 1.46 ± 0.03 | 1.48 ± 0.03 | 1.5 ± 0.03
313.15 K | 0.97 ± 0.03 | 0.99 ± 0.03 | 1.01 ± 0.03 | 1.03 ± 0.03 | 1.05 ± 0.03 | 1.07 ± 0.03

CC[n+]1ccn(C)c1.[Cl-] + O=C[C@H](O)[C@@H](O)[C@H](O)[C@H](O)CO + CC#N
373 K, 100 kPa
Conditions | viscosity [mPa·s]
x2 = 0, x1 = 0.359 | 3 ± 1
x2 = 0.002991, x1 = 0.3578 | 3 ± 1
x2 = 0.01533, x1 = 0.3535 | 4
x2 = 0.0316, x1 = 0.3476 | 5 ± 2
x2 = 0.04909, x1 = 0.3413 | 6 ± 2

CCCC[n+]1ccn(C)c1.[Br-] + COCCO
viscosity [mPa·s], 100 kPa
Conditions | 298.15 K | 303.15 K | 308.15 K | 313.15 K
x1 = 0.4 | – | – | 43.9 ± 4.5 | 28 ± 2.9
x1 = 0.5 | – | 101 ± 11 | – | 40.3 ± 4.2
x1 = 0.7002 | 350 ± 39 | – | – | 75 ± 7.8

CCCC[n+]1ccn(C)c1.[Br-] + O=C(O)c1cccnc1 + O
viscosity [mPa·s], 100 kPa
Conditions | 293.15 K | 298.15 K | 303.15 K | 308.15 K | 313.15 K | 318.15 K
x2 = 0, x1 = 0.0009002 | 1.033 ± 0.032 | 0.918 ± 0.031 | 0.823 ± 0.031 | 0.753 ± 0.031 | 0.676 ± 0.031 | 0.619 ± 0.031
x2 = 0, x1 = 0.001799 | 1.057 ± 0.032 | 0.938 ± 0.031 | 0.84 ± 0.031 | 0.758 ± 0.031 | 0.689 ± 0.031 | 0.631 ± 0.031
x2 = 0, x1 = 0.002696 | 1.069 ± 0.032 | 1 ± 0.031 | 0.905 ± 0.031 | 0.795 ± 0.031 | 0.749 ± 0.031 | 0.68 ± 0.031

CC(=O)[O-].CCCCC[n+]1ccccc1 + O
101 kPa
Conditions | electrical conductivity [S/m]
293.15 K, x1 = 0.9144 | 0.00606 ± 0.00052
293.15 K, x1 = 0.9163 | 0.006 ± 0.00051
293.15 K, x1 = 0.9314 | 0.00537 ± 0.00048
293.15 K, x1 = 0.948 | 0.00491 ± 0.00034
293.15 K, x1 = 0.9673 | 0.00428 ± 0.00024
293.15 K, x2 = 0.002318 | 0.00338 ± 0.00011
298.15 K, x1 = 0.9163 | 0.0103 ± 0.0047
298.15 K, x1 = 0.9314 | 0.00935 ± 0.00095
298.15 K, x1 = 0.948 | 0.00808 ± 0.0007
298.15 K, x1 = 0.9673 | 0.00703 ± 0.00043
298.15 K, x2 = 0.002318 | 0.00533 ± 0.00017
303.15 K, x1 = 0.9314 | 0.0157 ± 0.0019
303.15 K, x2 = 0.002318 | 0.00815 ± 0.00026
308.15 K, x1 = 0.9163 | 0.025 ± 0.013
308.15 K, x1 = 0.9314 | 0.0221 ± 0.0027
313.15 K, x1 = 0.9163 | 0.0356 ± 0.0057
318.15 K, x1 = 0.9163 | 0.0509 ± 0.0046
318.15 K, x1 = 0.948 | 0.0396 ± 0.0029
318.15 K, x1 = 0.9673 | 0.0345 ± 0.002
318.15 K, x2 = 0.002318 | 0.0267 ± 0.00082
323.15 K, x1 = 0.9163 | 0.0695 ± 0.0021
323.15 K, x2 = 0.002318 | 0.0339 ± 0.001
328.15 K, x1 = 0.9314 | 0.081 ± 0.0089
333.15 K, x1 = 0.9144 | 0.13 ± 0.057
338.15 K, x1 = 0.9144 | 0.175 ± 0.045
338.15 K, x1 = 0.948 | 0.13 ± 0.012
343.15 K, x1 = 0.9314 | 0.193 ± 0.022

CS(C)=O + CC(=O)[O-].CC[NH+](CC)CC
101 kPa, x1 = 1
Conditions | viscosity [mPa·s]
298.15 K | 1.99 ± 0.06
303.15 K | 1.79 ± 0.05
308.15 K | 1.65 ± 0.05

Reference: the CheMixHub ionic liquid set
